Laboratory results published in paper PMC9241695, “Selective Metal Chelation by a Thiosemicarbazone Derivative Interferes with Mitochondrial Respiration and Ribosome Biogenesis in Candida albicans” (Microbiology Spectrum, 2022).
Converted amounts (≈) assume the structure as drawn.

Legend:
[1] = test system: mammalian cells of 16HBE or HepG2; assay: CCK-8 reduction assay, mitochondrial dehydrogenase activity; type: cell-based, human; conditions: 5 μg/mL, 12 h or 48 h
Method: the fluorescent complex […] (CTF) is commonly used to indicate the intensity of microbial respiration. C. albicans SC5314 treated with 19ak was stained with 1 mM CTC for 30 min, followed by flow cytometry analysis of respiratory activity based on fluorescence intensity. Images of cells were obtained using a fluorescence microscope (IX71, Olympus, Tokyo, Japan). The Cell Counting Kit-8 (CCK-8) assay is used to measure the dehydrogenase activity in the mitochondria of C. albicans or mammalian cells. C. albicans SC5314 (5 × 10^6 cells/mL in RPMI1640 medium) were treated with different concentrations of 19ak in 96-well plates at 30°C for 12 h or 48 h. 10 μL of CCK-8 solution was added to each well. After an additional 2 h of incubation, OD450 in each well was detected with a microplate reader. […]
Mitochondrial isolation and detection of mitochondrial respiratory chain complex activity. […] The activities of mitochondrial respiratory chain complexes I-IV were determined by using the Micro Mitochondrial Respiratory Chain Complex Activity Assay Kit (Solarbio, Beijing, China). The concentration of protein was determined using the BCA Protein Assay Kit (Beyotime, Haimen, China).
Mitochondrial complex activity was expressed as nmol/min/mg protein. […]

[2] = test system: G. mellonella; assay: Toxicity of 19ak in G. mellonella larvae; type: in vivo, Galleria mellonella; conditions: 10 μg per larva, 4 days
Method: Larvae of normal size and in good condition were injected with 10 μL of 19ak (1 mg/mL) or PBS. The survival of the larvae was monitored daily for 4 days.

[3] = test system: C. krusei CK1; assay: Microbroth dilution MIC80; type: cell-based, Candida krusei; conditions: Pichia kudriavzevii, CK1
Text: Compound library. The thiosemicarbazone derivatives Triapine and COTI-2 were purchased from Med Chem Express (MCE). The other 87 thiosemicarbazones used in this study were previously synthesized by our collaborators (1, 2). Their structures are shown in Table 1 and Table S1 to help the reader clearly understand the relationship between structure and activity.
Strains and culture conditions. Clinically derived C. albicans isolates, including G5, F5, and Gu5, were kindly provided by Professor Joachim Morschhäuser of the University of Würzburg. Other clinical C. albicans isolates were kindly donated by Professor Qingguo Qi of Shandong University and Qianfoshan Hospital of Shandong Province Other Candida strains were obtained from Jinan Central Hospital.
The zap1 mutant and its complemented strain were kindly provided by Professor Aaron P. Mitchell of Carnegie Mellon University (3). The C. neoformans strains used in this study was kindly donated by Professor Guojian Liao of Southwest University and A. fumigatus strain used in this study was provided by Professor Ling Lu of Nanjing Normal University. Before in vitro and in vivo experiments, all C. albicans strains were grown on YPD agar plates. After culturing at 30°C for 24 h, colonies of each strain were cultured in liquid YPD medium at 30°C with continuous shaking […]
Antifungal susceptibility testing. To determine in vitro antifungal activities, the microbroth dilution method was carried out in RPMI1640 medium according to the guidelines of the Clinical and Laboratory Standards Institute (4, 5). The initial concentration in RPMI1640 medium was 1 × 10^3 CFU/mL for the C. albicans and C. neoformans suspensions but 1 × 10^4 CFU/mL for A. fumigatus. The range of final drug concentrations was 0.0156–64 μg/mL. The plates were incubated at35°C for 24 […]
h (for C. albicans, C. krusei, C. tropicalis, C. parapsilosis) or 48 h (for C. neoformans, A. fumigatus). The MIC was determined based on visible growth inhibition compared with the control. All experiments were performed in duplicate. […]

[4] = test system: C. albicans SC5314; assay: G. mellonella infection model; type: in vivo, Galleria mellonella; conditions: 19ak 0.4 μg per larva, FLC 2 μg per larva
Method: The G. mellonella infection model was used to evaluate the in vivo activity of 19ak in terms of survival, fungal burden, and histological features. A total of 60 larvae of similar size were selected and randomly allocated to four groups. The last right foreleg of each larva was injected with 10 μL of C. albicans SC5314 suspension (2 × 10^7 CFU/mL). Two hours after infection, the larvae were injected with 10 μL of drug or vehicle as follows for the four groups: 19ak (0.4 μg per larva), FLC (2 μg per larva), control (PBS), and blank control (no injection with C. albicans but injections of sterile PBS twice). The data for the blank control are not shown because this group survived well during the experiment. Failure to respond to light contact with forceps was considered a sign of larval death. In the survival assay, the number of surviving larvae in each group was calculated at the same time every day for 4 days.
To determine fungal burden, larval infection and treatment were performed as described above with groups of 30 larvae each. Each day, five larvae were randomly selected from each group and homogenized with glass beads in 0.5 mL of sterile PBS. The homogenate was serially diluted with sterile PBS, and 5 μL was spread on a yeast-peptone-dextrose solid plate ([62]). Experiments were performed at least three times independently.
We also conducted histopathological studies to explore the therapeutic effects of the drugs on G. mellonella fungal infection. First, the groups of larvae were infected as described above. After 48 h, three larvae from each group were randomly selected and fixed in 4% paraformaldehyde for sectioning and Periodic acid-Schiff (PAS) staining. The tissue was observed and photographed under an Olympus microscope with 40 × magnification (IX71, Olympus, Tokyo, Japan). The experiments were performed independently a minimum of three times.

## C/C(=N\NC(=S)N(C)C)c1ccccn1 [Compound 19ak]
[1]
  Mitochondrial dehydrogenase activity of mammalian cells (CCK-8): minimal inhibitory effect
[2]
  Survival of uninfected larvae (toxicity): all treated larvae were still alive
[3]
  MIC80: 0.125 mg/L (≈ 0.562 µM)
[4]; 48 h, PAS staining
  Histopathology of infected larvae: fewer infected areas
[4]; compared with the control group
  Fungal burden of infected larvae: greatly reduced the fungal burden
[4]; after 4 days of infection, 2 h after infection
  Survival rate of infected larvae: 67%
